Reference: patent US11945800B1, “1-cyclopropyl-6-fluoro-4-oxo-7-(4-((5-oxo-2-phenyl-4-(quinolin-2-ylmethylene)-4,5-dihydro-1H-imidazol-1-yl)methyl)piperazin-1-yl)-1,4-dihydroquinoline-3-carboxylic acid as an anti-inflammatory and anticancer compound” (KING FAISAL UNIVERSITY, priority 2023, dated 2024)

Experiments:
[1] = tested on: human osteosarcoma cells (MG-63); assay: Cytotoxicity by SRB assay, osteosarcoma cells; assay type: cell-based; settings: MG-63, 72 h, mean±SD
Procedure: (§1) The human prostate cancer cells (PC3) and human osteosarcoma cells (MG-63) were obtained from Nawah Scientific Inc. (Mokatam, Cairo, Egypt) and cultured in DMEM (Dulbecco's modified eagle's medium), Gibco, USA, supplemented with fetal bovine serum (FBS) at a concentration of 10% and 100 U/mL of penicillin and streptomycin (PS). The Cells were incubated at 37° C. in a humidified environment that contained 5% CO2.
(§2) The anticancer activity of 1-cyclopropyl-6-fluoro-4-oxo-7-(4-((5-oxo-2-phenyl-4-(quinolin-2-ylmethylene)-4,5-dihydro-1H-imidazol-1-yl)methyl)piperazin-1-yl)-1,4-dihydroquinoline-3-carboxylic acid was assessed against highly aggressive androgen-independent metastatic human prostate cancer cells (PC3) and osteosarcoma (MG-63) cells.
(§3) Cells were seeded in 96-well plates as aliquots of 100 μL cell suspension and incubated in a complete media for 24 h. afterward, cells were treated with 1-cyclopropyl-6-fluoro-4-oxo-7-(4-((5-oxo-2-phenyl-4-(quinolin-2-ylmethylene)-4,5-dihydro-1H-imidazol-1-yl)methyl)piperazin-1-yl)-1,4-dihydroquinoline-3-carboxylic acid at diverse concentrations ranging from 0.01 μM to 100 μM for 72 h. Then, cells were fixed at 4° C. for one hour with 150 μL of 10% trichloroacetic acid (TCA). After washing the cells five times with distilled water, 70 μL of sulforhodamine (SRB) solution (0.4% w/v) was added and incubated for 10 min at room temperature in a dark place. Cells were washed with 1% acetic acid three times and allowed to air-dry. Then, 150 μL of Tris pH 10.5 (10 mM) was added, and the absorbance was measured at 540 nm using a BMG LABTECH®-FLUOstar Omega microplate reader (Ortenberg, Germany). Half maximal inhibitory concentrations (IC50) values were calculated for each experiment using GraphPad Prism 6 software. IC50 values were reported as mean±SD.
(§4) The inhibition was calculated using the following equation: Inhibition %=100−Average Viability

[2] = tested on: human prostate cancer cells (PC3); assay: Cytotoxicity by SRB assay, prostate cancer cells; assay type: cell-based; settings: for IC50: PC-3, 72 h, mean±SD
Procedure: as §1, §2, §3, §4

[3] = target: Bovine Serum Albumin (Bos taurus, UniProt P02769); assay: Bovine Serum Albumin assay (BSA), inhibition of protein denaturation; assay type: biochemical; settings: pH 6.4, read-out: percentage inhibition of precipitation (protein denaturation)
Bovine Serum Albumin, sequence (P02769 25-607): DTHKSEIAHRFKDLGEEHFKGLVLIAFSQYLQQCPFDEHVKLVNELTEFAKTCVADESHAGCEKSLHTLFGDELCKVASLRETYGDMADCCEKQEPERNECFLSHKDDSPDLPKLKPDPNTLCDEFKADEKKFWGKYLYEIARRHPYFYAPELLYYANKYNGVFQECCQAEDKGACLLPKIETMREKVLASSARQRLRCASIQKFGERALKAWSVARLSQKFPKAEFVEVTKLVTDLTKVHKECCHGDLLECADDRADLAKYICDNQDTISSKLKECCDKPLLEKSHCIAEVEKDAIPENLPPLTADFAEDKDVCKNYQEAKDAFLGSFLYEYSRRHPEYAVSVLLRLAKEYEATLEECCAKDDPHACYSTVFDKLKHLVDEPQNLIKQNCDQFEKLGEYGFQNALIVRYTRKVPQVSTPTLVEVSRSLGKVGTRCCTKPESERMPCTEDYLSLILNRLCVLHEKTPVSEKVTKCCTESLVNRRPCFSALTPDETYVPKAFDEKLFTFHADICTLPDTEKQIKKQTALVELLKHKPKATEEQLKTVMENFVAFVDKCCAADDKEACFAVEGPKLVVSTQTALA
Procedure: In vitro-inflammatory activities of the tested samples were determined using a modified method of the BSA assay reported by Williams et al. BSA solution (0.4%, w/v) was prepared in Tris Buffered Saline. The pH was adjusted to 6.4 with glacial acetic acid. Different dilutions of 20, 40, 60, 80, and 100 μg/mL of the stock solutions were added to test tubes containing 1 mL of 0.4%, w/v BSA buffer solution. Both negative (solvent) and positive (aspirin) controls were assayed in a similar manner. The solutions were then heated in a water bath at 72° C. for 10 minutes and cooled for 20 minutes under laboratory conditions. The turbidity of the solutions (level of protein precipitation) was measured at 660 nm in Spectrophotometer (V-770 UV-Visible/NIR Spectrophotometer).
The percentage inhibition of precipitation (protein denaturation) was determined relative to the negative control using the following equation: […]

| melting point [°C] | inhibition at 100 µg/mL [3] [%] | Structure (SMILES) | IC50 ([1]; Homo sapiens) [µM] | IC50 ([1]; listed as Our Product) [µM] | IC50 ([2]; Homo sapiens, 72 h) [µM] | inhibition at 10 µg/mL ([2]; Homo sapiens, 72 h, Prostate cancer (PC-3), 10 μg/ml) [%] | IC50 ([2]; listed as Our Product) [µM] | Inhibition % ([2]; Prostate cancer (PC-3), 10 μg/ml, 72 h) [%] |
| --- | --- | --- | --- | --- | --- | --- | --- | --- |
| 231 to 235 | 88.1 | O=C(O)c1cn(C2CC2)c2cc(N3CCN(CN4C(=O)/C(=C\c5ccc6ccccc6n5)N=C4c4ccccc4)CC3)c(F)cc2c1=O [Compound 4, 1-cyclopropyl-6-fluoro-4-oxo-7-(4-((5-oxo-2-phenyl-4-(quinolin-2-ylmethylene)-4,5-dihydro-1H-imidazol-1-yl)methyl)piperazin-1-yl)-1,4-dihydroquinoline-3-carboxylic acid] | < 4 | 3.38 ± 0.2 | < 4 | 94 | 2.88 ± 0.03 | 94.32 |
|  |  | COc1cccc2c1C(=O)c1c(O)c3c(c(O)c1C2=O)C[C@@](O)(C(=O)CO)C[C@@H]3O[C@H]1C[C@H](N)[C@H](O)[C@H](C)O1 [DOX, Doxorubicin, reference compound] | 9.4 ± 1.1 |  | 7.6 ± 0.45 |  |  |  |
